Source: patent US10610520B2, “Heterocyclic compound” (Takeda Pharmaceutical Company Limited, priority 2016, dated 2020)

How the values were obtained:
[1] = system: intracerebral 2-AG and arachidonic acid; test: Measurement of intracerebral 2-AG and arachidonic acid concentrations after oral administration; type: in vivo, C57BL/6J mice; conditions: for 2-AG concentration / arachidonic acid concentration: cerebrum, male C57BL/6J mice, 3 mg/kg by gavage; for 2-AG concentration: control 9.9; for arachidonic acid concentration: control 163.5; for migration into brain: oral administration to C57BL/6J mice, 3 mg/kg
Description: As the mouse, 8-week-old male C57BL/6J mice (CLEA Japan, Inc.) were used (6 mice/group). Administration solutions were prepared by suspending the test compounds (compound 1 (compound of Example 279), compound 2 (compound of Example 361) and compound 3 (compound of Example 362)) in 0.5% methylcellulose solution (Wako Pure Chemical Industries, Ltd.). The dose of the test compound was prepared to be 3 mg/kg body weight/10 mL. The test compounds were administered by gavage at 3 mg/kg body weight. The cerebrum was isolated after the administration of the test compound (isolation time after the administration of the test compound is shown in Table 3), and the cerebrum hemisphere was extracted. The obtained cerebrum hemisphere was frozen on dry ice, and the frozen tissue weight was measured.
The cerebral tissue weight was measured, and cerebral tissue was homogenized with 4-fold (v/w) of isopropanol (IPA), and double diluted with IPA. To the diluted sample (200 μL) was added internal standard solution (5 μL) ([5,6,8,9,11,12,14,15-D8]-(5Z,8Z,11Z,14Z)5,8,11,14-eicosatetraenoic acid (AA-d8, 0.5 nmol/mL IPA) and [5,6,8,9,11,12,14,15-D8]-(5Z,8Z,11Z,14Z)-5,8,11,14-eicosatetraenoyl-2-glycerol ester (2-AG-d3, 0.5 nmol/mL IPA)), and the mixture was centrifuged at 15000 rpm for 5 min. The supernatant was injected to liquid chromatography mass spectrometer to perform quantitative analysis.
For liquid chromatography, Shimadzu LC20A system (Shimadzu Corporation) was used. The separation was performed by gradient elution method with mobile phase A (10 mmol/L HCOONH4/HCOOH (100:0.2, v/v)) and mobile phase B (ethanol/IPA (3:2, v/v)) using Shim-pack XR-ODS (2.2 μm, 2.0×30 mm, Shimadzu Corporation) at column temperature of 50° C., at flow rate of 0.5 mL/min. The gradient conditions are as follows: 0-1 min, 1% B; 1-1.2 min, 1-55% B; 1.2-2.7 min, 55-75% B; 2.7-3.5 min, 75-99% B; 3.5-6 min, 99% B; 6-8 min, 1% B.
For mass spectrometer, API5000 (AB SCIEX) was used. The eluate from the liquid chromatography was directly ionized by turbospray ionization method, where (5Z,8Z,11Z,14Z)5,8,11,14-eicosatetraenoic acid (AA) and AA-d8 were measured by negative ionization mode, and (5Z,8Z,11Z,14Z)5,8,11,14-eicosatetraenoyl-2-glycerol ester (2-AG) and 2-AG-d3 were measured by positive ionization mode.
A solution for calibration curve was prepared to the concentration of 2, 5, 10, 20, 50, 100, 200, 500, 1000 nmol/mL of acetonitrile. These solutions (10 μL) was mixed with 200 μL of IPA and 5 μL of internal standard solution, and the mixture was centrifuged at 15000 rpm for 5 min, and the supernatant was injected to liquid chromatography mass spectrometer to perform analysis. The calibration curve was drawn by regression line with a weighting of 1/x^2, and the quantitativity was confirmed by accuracy of 100±20% and R^2>0.99.

[2] = biological target: T1, His-hMAGL (recombinant polyhistidine tagged human MAGL protein) (Homo sapiens, UniProt Q99685); test: Measurement of MAGL inhibitory activity (arachidonic acid production from 2-arachidonylglycerol, RapidFire-mass spectrometry); type: biochemical; conditions: MAGL inhibitory rate, test compound 10 μM, 60 min preincubation, 2-arachidonylglycerol substrate
T1 construct: made in house; host or cells: E. coli BL21(DE3)
T1 sequence (Q99685 1-303): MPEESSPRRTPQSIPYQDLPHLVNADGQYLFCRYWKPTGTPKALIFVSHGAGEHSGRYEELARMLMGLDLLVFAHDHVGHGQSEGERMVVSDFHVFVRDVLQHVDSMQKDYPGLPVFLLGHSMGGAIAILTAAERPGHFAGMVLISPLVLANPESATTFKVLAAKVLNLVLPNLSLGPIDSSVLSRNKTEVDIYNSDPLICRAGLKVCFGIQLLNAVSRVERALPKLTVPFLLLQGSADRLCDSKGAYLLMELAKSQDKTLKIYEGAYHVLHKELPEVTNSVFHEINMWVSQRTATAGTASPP
Outline: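 Arachidonic acid formed was quantified by online solid-phase extraction and triple-quadrupole MS in negative SRM mode against a d8 internal standard. Reaction: recombinant His-hMAGL (7.5 ng/mL, pH 7.5 Tris buffer with Triton X-100 and BSA) plus 2-AG (5 μL of 150 μM stock) for 10 min at room temperature, quenched with 2% formic acid. Percent inhibition corrected for enzyme-free background.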

[3] = isolation 2 hour after administration
[4] = isolation 1 hour after administration

Row | migration into brain [1] | inhibition at 10 µM [2] [%] | SMILES | other results
1 |  | 100 | O=C1NC2(CO1)CN(C(=O)c1sc3cc(OC(F)(F)F)c(C(F)F)cc3c1Cl)C2 [Example 306, 2-((3-chloro-5-(difluoromethyl)-6-(trifluoromethoxy)-1-benzothiophen-2-yl)carbonyl)-7-oxa-2,5-diazaspiro[3.4]octan-6-one] | 
2 |  | 100 | O=C1CCC2(CN(C(=O)c3sc4cc(-c5cccc(C6CC6)c5)ccc4c3Cl)C2)N1 [Example 218, 2-((3-chloro-6-(3-cyclopropylphenyl)-1-benzothiophen-2-yl)carbonyl)-2,5-diazaspiro[3.4]octan-6-one] | 
3 |  | 100 | O=C1NC2(CO1)CN(C(=O)c1sc3c(C(F)(F)F)cccc3c1OC(F)F)C2 [Example 272, 2-((3-(difluoromethoxy)-7-(trifluoromethyl)-1-benzothiophen-2-yl)carbonyl)-7-oxa-2,5-diazaspiro[3.4]octan-6-one] | 
4 | migrated into brain |  | O=C1NC2(CO1)CN(C(=O)c1sc3cc(F)cc(F)c3c1Cl)C2 [compound 3, 2-((3-chloro-4,6-difluoro-1-benzothiophen-2-yl)carbonyl)-7-oxa-2,5-diazaspiro[3.4]octan-6-one] | 2-AG concentration [1, 4]: 25.7 nmol/g; arachidonic acid concentration [1, 4]: 156.1 nmol/g

The remaining lines, values behind:

Row | SMILES | migration into brain [1] | inhibition at 10 µM [2] [%] | other results
5 | O=C1NC2(CO1)CN(C(=O)c1sc3c(F)c(OC(F)(F)F)ccc3c1Cl)C2 [compound 1, 2-((3-chloro-7-fluoro-6-(trifluoromethoxy)-1-benzothiophen-2-yl)carbonyl)-7-oxa-2,5-diazaspiro[3.4]octan-6-one] | migrated into brain |  | 2-AG concentration [1, 3]: 73.2 nmol/g; arachidonic acid concentration [1, 3]: 109.4 nmol/g
6 | O=C1NC2(CO1)CN(C(=O)c1sc3cc(F)ccc3c1Cl)C2 [compound 2, 2-((3-chloro-6-fluoro-1-benzothiophen-2-yl)carbonyl)-7-oxa-2,5-diazaspiro[3.4]octan-6-one] | migrated into brain |  | 2-AG concentration [1, 4]: 30.2 nmol/g; arachidonic acid concentration [1, 4]: 151.8 nmol/g
7 | O=C1CCC2(CN(C(=O)c3sc4cc(-c5ccc(Cl)cc5)ccc4c3Cl)C2)N1 [Example 191, 2-((3-chloro-6-(4-chlorophenyl)-1-benzothiophen-2-yl)carbonyl)-2,5-diazaspiro[3.4]octan-6-one] |  | 97 | 
8 | O=C1CCC2(CN(C(=O)c3sc4cc(OC(F)F)ccc4c3Cl)C2)N1 [Example 260, 2-((3-chloro-6-(difluoromethoxy)-1-benzothiophen-2-yl)carbonyl)-2,5-diazaspiro[3.4]octan-6-one] |  | 100 | 
9 | O=C1NC2(CO1)CN(C(=O)c1sc3cc(C4CC4)cc(F)c3c1Cl)C2 [Example 311, 2-((3-chloro-6-cyclopropyl-4-fluoro-1-benzothiophen-2-yl)carbonyl)-7-oxa-2,5-diazaspiro[3.4]octan-6-one] |  | 101 | 
10 | O=C1CCC2(CN(C(=O)c3sc4cc(-c5cc(F)ccc5F)ccc4c3Cl)C2)N1 [Example 212, 2-((3-chloro-6-(2,5-difluorophenyl)-1-benzothiophen-2-yl)carbonyl)-2,5-diazaspiro[3.4]octan-6-one] |  | 100 | 
